For 25 compounds, IC50 results are on record in US9067911B2, “Piperidine derivatives” (Hoffmann-La Roche Inc., priority 2009, dated 2015).

For orientation: IC50 means the concentration that gives 50% inhibition. Read a high IC50 as weaker potency in that assay.

Each structure is given as a SMILES string. Where a name gives a salt, the structure may show the parent alone.

For this test, the target named is T1, mGlyT-1b (Mus musculus, UniProt P28571).
T1 construct: host or cells: Flp-in-CHO
T1 sequence (P28571 1-651 isoform P28571-2): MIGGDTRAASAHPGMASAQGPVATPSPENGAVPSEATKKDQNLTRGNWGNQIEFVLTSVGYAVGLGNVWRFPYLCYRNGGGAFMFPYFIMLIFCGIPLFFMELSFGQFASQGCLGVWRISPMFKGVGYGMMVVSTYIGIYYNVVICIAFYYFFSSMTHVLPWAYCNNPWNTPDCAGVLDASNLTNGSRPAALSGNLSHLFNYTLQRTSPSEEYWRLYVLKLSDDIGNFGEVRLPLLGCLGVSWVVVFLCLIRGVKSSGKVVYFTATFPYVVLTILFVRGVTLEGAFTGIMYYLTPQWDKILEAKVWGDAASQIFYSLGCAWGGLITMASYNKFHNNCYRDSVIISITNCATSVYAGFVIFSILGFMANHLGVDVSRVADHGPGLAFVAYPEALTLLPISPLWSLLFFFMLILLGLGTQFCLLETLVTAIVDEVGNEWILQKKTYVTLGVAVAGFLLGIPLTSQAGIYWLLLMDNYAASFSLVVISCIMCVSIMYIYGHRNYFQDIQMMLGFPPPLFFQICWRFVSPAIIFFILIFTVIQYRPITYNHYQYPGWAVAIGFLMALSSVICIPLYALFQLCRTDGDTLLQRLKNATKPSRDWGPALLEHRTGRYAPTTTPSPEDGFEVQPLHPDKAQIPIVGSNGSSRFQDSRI
Kind of test: Glycine uptake inhibition assay (mGlyT-1b). It counts as cell-based. To be noted: [3H]-glycine uptake, Flp-in-CHO cells stably transfected with mGlyT1b cDNA, 20 min preincubation at 22° C. How it is done:
Nutrient mixture F-12 (Gibco Life-technologies), fetal bovine serum (FBS) 5%, (Gibco life technologies), Penicillin/Streptomycin 1% (Gibco life technologies), Hygromycin 0.6 mg/ml (Gibco life technologies), Glutamine 1 mM Gibco life technologies)
150 mM NaCl, 10 mM Hepes-Tris, pH 7.4, 1 mM CaCl2, 2.5 mM KCl, 2.5 mM MgSO4, 10 mM (+) D-glucose.
Flp-in™-CHO (Invitrogen Cat n° R758-07) cells stably transfected with mGlyT1b cDNA.
Glycine Uptake Inhibition Assay (mGlyT-1b)
On day 1 mammalian cells, (Flp-in™-CHO), transfected with mGlyT-1b cDNA, were plated at the density of 40,000 cells/well in complete F-12 medium, without hygromycin in 96-well culture plates. On day 2, the medium was aspirated and the cells were washed twice with uptake buffer (UB). The cells were then incubated for 20 min at 22° C. with either (i) no potential competitor, (ii) 10 mM non-radioactive glycine, (iii) a concentration of a potential inhibitor. A range of concentrations of the potential inhibitor was used to generate data for calculating the concentration of inhibitor resulting in 50% of the effect (e.g. IC50, the concentration of the competitor inhibiting glycine uptake of 50%). A solution was then immediately added containing [^3H]-glycine 60 nM (11-16 Ci/mmol) and 25 μM non-radioactive glycine. The plates were incubated with gentle shaking and the reaction was stopped by aspiration of the mixture and washing (three times) with ice-cold UB. The cells were lysed with scintillation liquid, shaken 3 hours and the radioactivity in the cells was counted using a scintillation counter.
`COc1cc(C(F)(F)F)cc(SC)c1C(=O)NC1(c2ccncc2)CCCN(C)C1` (racemic) [Example 71, rac-2-Methoxy-6-methylsulfanyl-N-(1-methyl-1,4,5,6-tetrahydro-2H-[3,4′]bipyridinyl-3-yl)-4-trifluoromethyl-benzamide] came in with an IC50 of 55.9 nM.
For `CCc1cc(C(F)(F)F)ccc1C(=O)NC1(c2ccncc2)CCCN(C)C1` (racemic) [Example 72, rac-2-Ethyl-N-(1-methyl-1,4,5,6-tetrahydro-2H-[3,4′]bipyridinyl-3-yl)-4-trifluoromethyl-benzamide hydrochloride], 36.9 nM corresponded to half-maximal inhibition (IC50).
The result for `COc1cc(C(F)(F)F)cc(SC)c1C(=O)NC1(c2cccnc2)CCCN(C)C1` (racemic) [Example 73, rac-2-Methoxy-6-methylsulfanyl-N-(1-methyl-1,4,5,6-tetrahydro-2H-[3,3′]bipyridinyl-3-yl)-4-trifluoromethyl-benzamide] reads 54.4 nM; that for `CCc1cc(C(F)(F)F)ccc1C(=O)NC1(c2cccnc2)CCCN(C)C1` (racemic) [Example 74, rac-2-Ethyl-N-(1-methyl-1,4,5,6-tetrahydro-2H-[3,3′]bipyridinyl-3-yl)-4-trifluoromethyl-benzamide hydrochloride], 123 nM.
The result for `CO[C@@H]1CN(C)C[C@](NC(=O)c2ccc(C(F)(F)F)cc2C2CC2)(c2ccccc2)C1` (racemic) [Example 76, 2-Cyclopropyl-N-((3RS,5SR)-5-methoxy-1-methyl-3-phenyl-piperidin-3-yl)-4-trifluoromethyl-benzamide] reads 92.9 nM; that for `CCc1cc(C(F)(F)F)ccc1C(=O)N[C@@]1(c2ccccc2)C[C@H](OC)CN(C)C1` (racemic) [Example 77, 2-Ethyl-N-((3RS,5SR)-5-methoxy-1-methyl-3-phenyl-piperidin-3-yl)-4-trifluoromethyl-benzamide], 88.1 nM.
Regarding `COc1cc(C(F)(F)F)cc(OC)c1C(=O)NC1(c2ccccc2)CCCN(C)C1` (racemic) [Example 80, rac-2,6-Dimethoxy-N-(1-methyl-3-phenyl-piperidin-3-yl)-4-trifluoromethyl-benzamide], half-maximal inhibition (IC50) required 176 nM.
Consider `C[C@@H]1CN(C)C[C@](NC(=O)c2ccc(C(F)(F)F)cc2C2CC2)(c2ccccc2)C1` (racemic) [Example 82, 2-Cyclopropyl-N-((3RS,5SR)-1,5-dimethyl-3-phenyl-piperidin-3-yl)-4-trifluoromethyl-benzamide hydrochloride], for which inhibition was half-maximal at 25.3 nM (IC50).
Compound `CN1CC(C)(C)CC(NC(=O)c2ccc(C(F)(F)F)cc2C2CC2)(c2ccccc2)C1` (racemic) [Example 83, rac-2-Cyclopropyl-4-trifluoromethyl-N-(1,5,5-trimethyl-3-phenyl-piperidin-3-yl)-benzamide] came in with an IC50 of 30 nM.
Regarding `COc1cc(C(F)(F)F)cc(SC)c1C(=O)NC1(c2ccccc2)CCC(C)(C)N(C)C1` (racemic) [Example 84, rac-2-Methoxy-6-methylsulfanyl-4-trifluoromethyl-N-(1,6,6-trimethyl-3-phenyl-piperidin-3-yl)-benzamide hydrochloride], 17.3 nM corresponded to half-maximal inhibition (IC50).
As for `COCO[C@@H]1CN(C)C[C@](NC(=O)c2c(OC)cc(C(F)(F)F)cc2SC)(c2ccccc2)C1` (racemic) [Example 86, 2-Methoxy-N-((3RS,5SR)-5-methoxymethoxy-1-methyl-3-phenyl-piperidin-3-yl)-6-methylsulfanyl-4-trifluoromethyl-benzamide], the midpoint of inhibition, the IC50, lay at 71.5 nM.
For `COc1cc(C(F)(F)F)cc(SC)c1C(=O)NC1(c2cccc(Br)c2)CCCN(C)C1` (racemic) [Example 87, rac-N-[3-(3-Bromo-phenyl)-1-methyl-piperidin-3-yl]-2-methoxy-6-methylsulfanyl-4-trifluoromethyl-benzamide hydrochloride] the value was 39.6 nM.
On to `COc1cc(C(F)(F)F)cc(SC)c1C(=O)NC1(c2ccc(F)cc2Cl)CCCN(C)C1` (racemic) [Example 88, rac-N-[3-(2-Chloro-4-fluoro-phenyl)-1-methyl-piperidin-3-yl]-2-methoxy-6-methylsulfanyl-4-trifluoromethyl-benzamide], for which the IC50 was 146 nM.
For `COc1cc(C(F)(F)F)cc(SC)c1C(=O)NC1(c2cccc(C(F)(F)F)c2)CCCN(C)C1` (racemic) [Example 89, rac-2-Methoxy-6-methylsulfanyl-N-[1-methyl-3-(3-trifluoromethyl-phenyl)-piperidin-3-yl]-4-trifluoromethyl-benzamide] the value was 107 nM; for `COc1cccc(C2(NC(=O)c3c(OC)cc(C(F)(F)F)cc3SC)CCCN(C)C2)c1` (racemic) [Example 91, rac-2-Methoxy-N-[3-(3-methoxy-phenyl)-1-methyl-piperidin-3-yl]-6-methylsulfanyl-4-trifluoromethyl-benzamide], 113 nM; for `COc1cc(C(F)(F)F)cc(SC)c1C(=O)NC1(c2cccc(F)c2)CCCN(C)C1` (racemic) [Example 93, rac-N-[3-(3-Fluoro-phenyl)-1-methyl-piperidin-3-yl]-2-methoxy-6-methylsulfanyl-4-trifluoromethyl-benzamide formic acid], 47.9 nM.
With `COc1cc(C(F)(F)F)cc(SC)c1C(=O)NC1(c2ccc(F)c(Cl)c2)CCCN(C)C1` (racemic) [Example 94, rac-N-[3-(3-Chloro-4-fluoro-phenyl)-1-methyl-piperidin-3-yl]-2-methoxy-6-methylsulfanyl-4-trifluoromethyl-benzamide], the IC50 was determined as 59.6 nM.
Consider `COc1cc(C(F)(F)F)cc(SC)c1C(=O)NC1(c2ccc(F)c(F)c2)CCCN(C)C1` (racemic) [Example 95, rac-N-[3-(3,4-Difluoro-phenyl)-1-methyl-piperidin-3-yl]-2-methoxy-6-methylsulfanyl-4-trifluoromethyl-benzamide], for which the 50% inhibitory concentration (IC50) is 51.5 nM.
As for `COc1cc(C(F)(F)F)cc(SC)c1C(=O)NC1(c2cccc(C)c2)CCCN(C)C1` (racemic) [Example 96, rac-2-Methoxy-6-methylsulfanyl-N-(1-methyl-3-m-tolyl-piperidin-3-yl)-4-trifluoromethyl-benzamide], the IC50 was 68.2 nM.
`COc1cc(C(F)(F)F)cc(SC)c1C(=O)NC1(c2ccc(F)c(C)c2)CCCN(C)C1` (racemic) [Example 97, rac-N-[3-(4-Fluoro-3-methyl-phenyl)-1-methyl-piperidin-3-yl]-2-methoxy-6-methylsulfanyl-4-trifluoromethyl-benzamide] displayed a concentration for half-maximal inhibition (IC50) of 185 nM.
The compound `COc1cc(C(F)(F)F)cc(SC)c1C(=O)NC1(c2cc(F)cc(F)c2)CCCN(C)C1` (racemic) [Example 98, rac-N-[3-(3,5-Difluoro-phenyl)-1-methyl-piperidin-3-yl]-2-methoxy-6-methylsulfanyl-4-trifluoromethyl-benzamide] came in with an IC50 of 62.2 nM.
In the case of `COc1cc(C(F)(F)F)cc(SC)c1C(=O)NC1(c2ccccc2)CN(C)CC(C)(C)C1` (racemic) [Example 99, rac-2-Methoxy-6-methylsulfanyl-4-trifluoromethyl-N-(1,5,5-trimethyl-3-phenyl-piperidin-3-yl)-benzamide hydrochloride], the IC50 stood at 36.6 nM.
The result for `CCc1c(C(=O)NC2(c3ccccc3)CCCN(C)C2)ccc(C(F)(F)F)c1C` (racemic) [Example 103, rac-2-Ethyl-3-methyl-N-(1-methyl-3-phenyl-piperidin-3-yl)-4-trifluoromethyl-benzamide formic acid] reads 77.3 nM; that for `COc1cc(C(F)(F)F)cc(SC)c1C(=O)NC1(c2ccccc2)CCCN(C(C)(C)C)C1` (racemic) [Example 104, rac-N-(1-tert-Butyl-3-phenyl-piperidin-3-yl)-2-methoxy-6-methylsulfanyl-4-trifluoromethyl-benzamide], 173 nM; that for `COc1cc(C(F)(F)F)cc(SC)c1C(=O)NC1(c2ccccc2)CCC2(CC2)N(C)C1` (racemic) [Example 105, rac-2-Methoxy-N-(4-methyl-6-phenyl-4-aza-spiro[2.5]oct-6-yl)-6-methylsulfanyl-4-trifluoromethyl-benzamide], 29.3 nM.
